Holding throughout (assay): NCI-60 cell line screen, 48 h
In experiment [1] the test system is HT29 colon.
Experiment [2] has as its system UACC-257 melanoma.
Experiment [3] deals with SF-539 CNS.
The test system of experiment [4] is HCT-116 colon.
Experiment [5] has as its system IGROV1 ovarian.
Experiment [6] concerns NCI/ADR-RES ovarian.
The test system of experiment [7] is T-47D breast.
For experiment [8], the system named is SN12C renal.
In experiment [9] the test system is KM12 colon.
The test system of experiment [10] is OVCAR-8 ovarian.

“And” between values parts separate entries of the source, which are not always exact repeats. Identical values can stand only once.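 How tested: cells in 96-well plates exposed to compound for 48 hours at five concentrations. At the GI50, growth is halved. Definition used: TGI = concentration required for complete inhibition of growth.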 Bounds are passed on as bounds.

Take `Nc1nc(/C=C\c2ccccc2)nc(N2CCN(c3ccccc3)CC2)n1`: the GI50 was 18 µM in [1]; 29.1 µM in experiment [2]; 41.1 µM in experiment [3]; 13.5 µM in experiment [4]; 22.9 µM in [5]; 25.5 µM in experiment [6]. For the same molecule, the GI50 was 11.6 µM in [7], 18.2 µM in experiment [8], 27.2 µM in [9] and 35.4 µM in experiment [10]. Besides, the TGI in [1] is 41.8 µM; in [2], 68.5 µM; in experiment [3], over 100 µM; in experiment [4], 31.7 µM; in experiment [5] it was 69.8 µM; in experiment [6], 93.3 µM. Moreover, the TGI in [7] is 41.9 µM; in experiment [8] it was 38.6 µM; in experiment [9], 60.6 µM; in experiment [10] it was over 100 µM.

`O=C1/C(=C/c2ccc(Cl)cc2)CNC/C1=C\c1ccc(Cl)cc1`: the GI50 in [1] was 0.254 µM and 1.28 µM; in experiment [2] it was 1.78 µM and 7.7 µM. Also, the TGI in experiment [1] is 0.697 µM and 3.38 µM; in experiment [3], 3.2 µM and 4.11 µM; in experiment [4], 3.07 µM and 3.85 µM; in experiment [5] it was 4.15 µM and 3.49 µM; in experiment [6], 9.61 µM; in experiment [7], 36.1 µM. Further, the TGI in [8] is 6.38 µM and 14.3 µM; in [9], 3.07 µM.

Turning to `COc1cccc(Nc2nc3ccccc3c3occc23)c1`, the GI50 in experiment [2] was 13.2 µM; in experiment [3], 17.3 µM; in experiment [4], 15.3 µM; in experiment [5] it was 4.95 µM; in experiment [6], 17.9 µM; in experiment [7] it was 4.1 µM. Also, the GI50 in experiment [8] was 12.1 µM; in experiment [9], 3.13 µM; in [10] it was 15.8 µM. Also, the TGI in experiment [2] came out at 26.8 µM; in experiment [3], 35.1 µM; in experiment [4], 34.4 µM; in [5], 25.9 µM; in [6], 32.1 µM; in experiment [7] it was 22.8 µM. The results for the TGI in experiment [8], in experiment [9] and in experiment [10] were 35.1 µM, 10.7 µM and 42.7 µM, respectively.

Consider `COC(=O)c1cc2c3ccccc3n3c2c(n1)-c1[nH]c2ccccc2c(=O)c1C3`, for which the GI50 in experiment [1] is over 100 µM; in [2] it was over 100 µM; in experiment [3], 20.3 µM; in [4], 21 µM; in [5], 24.6 µM; in experiment [6], over 100 µM. Moreover, the GI50 in experiment [7] was 58.4 µM; in [8] it was over 100 µM; in [9], over 100 µM; in experiment [10], over 100 µM. Also, the TGI in experiment [1] is over 100 µM; in experiment [2], over 100 µM; in [3] it was 77.6 µM; in [4], over 100 µM; in [5], over 100 µM; in experiment [6], over 100 µM. Besides, the TGI in [7], in experiment [8], in experiment [9] and in experiment [10] was over 100 µM in each case.

As to `O=C(O)C1[O][Sb][O]C(C(=O)O)C1O` (centres undefined), the GI50 in experiment [1], in [4], in [5], in [6], in [7] and in [8] was over 100 µM throughout. The GI50 in [9] and in [10] was over 100 µM in each case. In addition, the TGI in experiment [1], in [4], in experiment [5], in [6], in experiment [7] and in [8] was over 100 µM in each case. Besides, the TGI in experiment [9] and in [10] was over 100 µM each time.

Take `CN1CCN(Cc2ccc(NC(=O)c3cncc(C#Cc4cnc(N)c5cccnc45)c3)cc2C(F)(F)F)CC1`: the GI50 in experiment [1] was 0.157 µM; in [2], 0.273 µM; in [3], 0.288 µM; in experiment [4], 0.224 µM; in [6] it was over 50 µM; in [7], 0.36 µM. Also, the values for the GI50 in experiment [8], in experiment [9] and in [10] were 0.311 µM, 0.069 µM and 0.397 µM, respectively. Also, the TGI in experiment [1] was over 50 µM; in [2], over 50 µM; in experiment [3] it was 1.78 µM; in [4], 6.6 µM; in [6], over 50 µM; in experiment [7] it was over 50 µM. The TGI in [8], in [9] and in [10] was over 50 µM each time.

For `O=C(c1ccc(Cl)cc1)C(O)c1ccc(Cl)cc1` (centres undefined), the TGI in experiment [1], in experiment [2], in experiment [3], in [4], in experiment [5] and in experiment [6] was over 100 µM each time. Moreover, the TGI in experiment [8], in [9] and in experiment [10] was over 100 µM throughout.

Turning to `CC(=O)c1cc(C(=O)c2ccc3c(c2)Sc2ccccc2N3)n2ccccc12`, the GI50 in experiment [1] was 0.0035 µM and 0.00332 µM; in experiment [2], 0.00332 µM; in [3] it was 0.00278 µM and 0.00332 µM; in [4], 0.00398 µM and 0.00332 µM; in experiment [5], 0.00897 µM and 0.0258 µM; in experiment [6], 0.00393 µM and 0.00332 µM. Further, the GI50 was 0.00441 µM in [9]; 0.00752 µM and 0.00332 µM in experiment [10]. The TGI in experiment [2] is over 33.2 µM; in [3], 0.00949 µM and 0.0103 µM; in [5], over 33.2 µM; in experiment [6], 1.86 µM; in experiment [8], over 33.2 µM; in experiment [10], over 33.2 µM.

Take `Cc1cn(Cc2ccc(C34CC5CC(CC(C5)C3)C4)c(O)c2)c(=O)[nH]c1=O`: the GI50 in [1] is 11.1 µM; in experiment [3], 9.45 µM; in [4] it was 10.7 µM; in [6], 11.3 µM; in experiment [7] it was 6.45 µM; in experiment [8], 12.3 µM. The GI50 in [9] was 11.4 µM. Besides, the TGI in experiment [1] was found to be 26.5 µM; in experiment [3], 23 µM; in experiment [4], 22.5 µM; in [6] it was 27.2 µM; in experiment [7] it was 51.8 µM; in experiment [8], 25.4 µM. The same molecule gave a TGI in experiment [9] of 26.2 µM.

(Values after PubChem BioAssay (NCI).)
